Legend:
Type in all cases: biochemical
[1] = biological target: T1, apoALAS2 ΔC (residues 54–547) (Homo sapiens, UniProt P22557); assay: Inhibitor competition, apoenzyme reactivation by PLP with hemin
T1 construct: a truncation without the C-terminal CXXC motif (ΔC, residues 54–547); His6-SUMO (N, cleaved yes); made in house; host or cells: Escherichia coli BL21-Codon Plus (DE3)-RIL
T1 sequence (P22557 54-547): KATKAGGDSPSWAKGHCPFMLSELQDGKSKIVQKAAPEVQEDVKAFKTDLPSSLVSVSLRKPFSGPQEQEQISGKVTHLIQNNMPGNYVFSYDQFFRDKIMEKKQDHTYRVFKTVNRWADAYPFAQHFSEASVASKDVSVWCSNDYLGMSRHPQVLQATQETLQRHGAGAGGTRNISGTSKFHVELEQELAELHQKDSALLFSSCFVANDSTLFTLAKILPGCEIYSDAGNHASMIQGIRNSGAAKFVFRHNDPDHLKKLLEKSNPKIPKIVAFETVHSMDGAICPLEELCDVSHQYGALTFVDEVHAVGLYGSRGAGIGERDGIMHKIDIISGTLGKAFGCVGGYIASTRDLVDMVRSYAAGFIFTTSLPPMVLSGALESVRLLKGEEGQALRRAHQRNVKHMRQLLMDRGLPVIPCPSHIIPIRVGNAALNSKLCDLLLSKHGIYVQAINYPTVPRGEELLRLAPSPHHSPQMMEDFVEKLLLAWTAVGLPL
Procedure: (§1) A discontinuous colorimetric activity assay adapted from Shoolingin-Jordan et al. and Bailey et al. was used to measure the enzyme activity ([48], [74]). The reaction was initiated by adding 100 nM purified enzyme to 50 mM potassium phosphate, pH 7.0, 10 mM MgCl2, 1 mM DTT, 100 mM glycine, and 300 μM succinyl-CoA (175 μl total). The reaction was incubated at 37 °C for 15 min and terminated with 100 μl of cold 10% trichloroacetic acid. The precipitated protein was removed by centrifugation for 5 min at 13,000g, and 240 μl of the supernatant was mixed with 240 μl of 1 M sodium acetate, pH 4.6. To derivatize ALA, 20 μl of acetylacetone was added to the mixture and boiled at 100 °C for 10 min. After the sample was cooled for 20 min, 100 μl aliquots were transferred into a clear 96-well plate in triplicate. An equal volume of Ehrlich’s reagent (p-Dimethylaminobenzaldehyde, DMAB) was added to each well, and the absorbance was monitored at 553 nm using a microplate reader (Thermo Fisher Scientific). The peak absorbance value was converted to molar ALA concentration using ε553 = 60,400 M^−1 cm^−1.
(§2) For inhibitor competition experiments, the apoenzymes were preincubated with hemin or PLP (0–100 μM) for 15 min at 25 °C in the dark before initiating the reaction. Next, either PLP or hemin (0–100 μM) was titrated into the reactions to measure enzyme activation after hemin inhibition or enzyme inhibition of the PLP-treated apoenzyme, respectively. For succinyl-CoA:hemin competition analyses, the WT holoenzyme was mixed with hemin (0, 25, 50, and 100 μM), followed by the addition of increasing succinyl-CoA concentrations (0, 25, 50, 100, 250, and 500 μM). All experiments were performed with a minimum of three biological replicates, each with three technical replicates. Data were fit using nonlinear regression to generate an agonist dose-response curve (EC50) or an inhibitor dose-response curve (IC50). Lineweaver-Burk analysis was performed using the resulting kinetic parameters (Vmax and KM) in GraphPad Prism 10.

[2] = biological target: T2, WT holoALAS2 (residues 54–587) (Homo sapiens, UniProt P22557); assay: Colorimetric ALA release activity assay, hemin inhibition of holoenzyme; settings: 0.1 μM–60 μM hemin titrated into holoALAS2, rate of ALA release
T2 construct: His6-SUMO (N, cleaved yes); made in house; host or cells: Escherichia coli BL21-Codon Plus (DE3)-RIL
T2 sequence (P22557 54-587): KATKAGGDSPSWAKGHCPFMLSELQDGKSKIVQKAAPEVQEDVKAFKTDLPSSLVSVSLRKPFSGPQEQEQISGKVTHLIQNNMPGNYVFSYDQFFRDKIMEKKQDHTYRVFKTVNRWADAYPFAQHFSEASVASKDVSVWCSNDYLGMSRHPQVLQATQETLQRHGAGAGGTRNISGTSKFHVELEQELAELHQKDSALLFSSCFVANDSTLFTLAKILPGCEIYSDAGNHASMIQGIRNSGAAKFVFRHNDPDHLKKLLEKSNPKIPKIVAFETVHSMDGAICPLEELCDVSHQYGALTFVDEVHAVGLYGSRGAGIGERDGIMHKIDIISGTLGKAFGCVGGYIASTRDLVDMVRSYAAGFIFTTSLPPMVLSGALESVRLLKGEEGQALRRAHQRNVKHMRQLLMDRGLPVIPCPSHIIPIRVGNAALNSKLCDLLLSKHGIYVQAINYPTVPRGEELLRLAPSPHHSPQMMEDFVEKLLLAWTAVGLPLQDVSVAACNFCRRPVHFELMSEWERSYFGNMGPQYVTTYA
Procedure: as §1
(§3) Inhibition of enzyme activity was determined by titrating hemin (0.1 μM–60 μM) into the substrate mixture before initiating the reaction upon enzyme addition. Hemin was dissolved in 100% dimethyl sulfoxide (DMSO) (ε403 nm = 170,000 M^−1 cm^−1) and serially diluted in 100% DMSO to prepare stock solutions for each concentration. The final DMSO concentration in the reaction mixture was 2%. All experiments were performed with a minimum of three biological replicates, each with three technical replicates. Data were fitted using nonlinear regression to generate an inhibitor dose-response curve (IC50) or an agonist dose-response curve (EC50), and statistical significance was determined using a one-way ANOVA with GraphPad Prism 10.

[3] = biological target: T3, holoALAS2 ΔC (residues 54–547) (Homo sapiens, UniProt P22557); assay: as above
T3 construct: a truncation without the C-terminal CXXC motif (ΔC, residues 54–547); His6-SUMO (N, cleaved yes); made in house; host or cells: Escherichia coli BL21-Codon Plus (DE3)-RIL
T3 sequence (P22557 54-547): T1 sequence (P22557 54-547)
Procedure: as §1, §3

[4] = biological target: T2, WT holoALAS2 (residues 54–587); assay: Succinyl-CoA:hemin competition analysis; settings: WT holoenzyme
Procedure: as §1, §2

## Cc1ncc(COP(=O)(O)O)c(C=O)c1O [PLP]
[1]; ΔC apoALAS2, PLP titration in the presence of 50 μM hemin
  EC50: 9 ± 1 µM
[1]; ΔC apoenzyme preincubated with 50 μM heme, excess PLP
  apoenzyme activity restored: ~50%

## ferric chloride heme [hemin]
[2]
  IC50: 18.7 ± 0.5 µM
[3]; 0.1 μM–60 μM hemin titrated into holoenzyme
  IC50: 31.3 ± 0.8 µM
[3]; 100-fold excess heme
  residual enzyme activity, of basal activity: ~25%
[1]; ΔC, multiple heme concentrations (Fig. S4)
  mode of inhibition: allosteric mixed inhibitor
[4]; heme versus no heme, varied succinyl-CoA
  fold lower Vmax: 8 fold
[4]; varied succinyl-CoA and heme
  mode of inhibition: uncompetitively

— article PMC12856317, “A reversible feedback mechanism regulating mitochondrial heme synthesis” (The Journal of Biological Chemistry, 2025)
